# Laboratory results published in ChEMBL document CHEMBL1201862, “PubChem BioAssay data set” (2004).
#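 Where inhibition never reached the appropriate level, the endpoint shown equals the highest concentration tested. Otherwise, values were interpolated linearly from a five-concentration, 48-hour dose response in 96-well plates. The concentration for 50% growth inhibition is given as GI50.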 Calls of active or inactive are those of the source. Rule as the data show it: active = GI50 up to about 1.1 µM and inactive = higher.
# Columns and labels:
# Test in all cases: DTP human tumour cell line panel, 48 h
# NCI-H226 = system: NCI-H226
# TK-10 = system: TK-10
# OVCAR-3 = system: OVCAR-3
# M14 = system: M14
# Hs-578T = system: Hs-578T
# HCT-116 = system: HCT-116
# T47D = system: T47D
# A498 = system: A498
# U-251 = system: U-251
# OVCAR-8 = system: OVCAR-8
# MDA-N = system: MDA-N
# LOX IMVI = system: LOX IMVI
# 786-0 = system: 786-0
# SK-OV-3 = system: SK-OV-3
# SN12C = system: SN12C
# Malme-3M = system: Malme-3M
# OVCAR-4 = system: OVCAR-4
# ACHN = system: ACHN
# HOP-62 = system: HOP-62
# SR = system: SR
# HCC 2998 = system: HCC 2998
# SF-539 = system: SF-539
# MDA-MB-435 = system: MDA-MB-435
# SNB-19 = system: SNB-19
# MCF7 = system: MCF7
# SF-295 = system: SF-295
# CAKI-1 = system: CAKI-1
# SK-MEL-2 = system: SK-MEL-2
# PC-3 = system: PC-3
# SF-268 = system: SF-268
# A549 = system: A549
# SK-MEL-5 = system: SK-MEL-5
# K562 = system: K562
# HL-60 = system: HL-60
# DU-145 = system: DU-145
# NCI/ADR-RES = system: NCI/ADR-RES
# OVCAR-5 = system: OVCAR-5
# SW-620 = system: SW-620
# UACC-62 = system: UACC-62
# IGROV-1 = system: IGROV-1
# HCT-15 = system: HCT-15
# CCRF-CEM = system: CCRF-CEM
# HT-29 = system: HT-29
# MDA-MB-231 = system: MDA-MB-231
# UACC-257 = system: UACC-257
# COLO 205 = system: COLO 205
# RXF 393 = system: RXF 393
# SK-MEL-28 = system: SK-MEL-28
# BT-549 = system: BT-549
# NCI-H460 = system: NCI-H460
# NCI-H522 = system: NCI-H522
# MOLT-4 = system: MOLT-4
# NCI-H23 = system: NCI-H23
# KM12 = system: KM12
# EKVX = system: EKVX
smiles,measurement,setting,value
COc1cc(/C=C/C(=O)OCC23CC[C@@]4(C(=O)O)CCC(C)[C@H](C)C4C2=CCC2[C@@]4(C)CC[C@H](O)C(C)(C)C4CC[C@]23C)ccc1O (stereo not given in full),GI50,NCI-H226,27.5 µM (inactive)
same,GI50,TK-10,2.97 µM (inactive)
same,GI50,OVCAR-3,3.88 µM (inactive)
same,GI50,M14,23.2 µM (inactive)
same,GI50,Hs-578T,4.66 µM (inactive)
same,GI50,HCT-116,17.5 µM (inactive)
same,GI50,T47D,48.5 µM (inactive)
same,GI50,A498,32.4 µM (inactive)
same,GI50,U-251,27.9 µM (inactive)
same,GI50,OVCAR-8,15.9 µM (inactive)
same,GI50,MDA-N,24.3 µM (inactive)
same,GI50,LOX IMVI,15.6 µM (inactive)
same,GI50,786-0,11 µM (inactive)
same,GI50,SK-OV-3,29 µM (inactive)
same,GI50,SN12C,8.09 µM (inactive)
same,GI50,Malme-3M,11.9 µM (inactive)
same,GI50,OVCAR-4,17.5 µM (inactive)
same,GI50,ACHN,3.05 µM (inactive)
same,GI50,HOP-62,13.4 µM (inactive)
same,GI50,SR,19.4 µM (inactive)
same,GI50,HCC 2998,54.1 µM (inactive)
same,GI50,SF-539,14.7 µM (inactive)
same,GI50,MDA-MB-435,24.5 µM (inactive)
same,GI50,SNB-19,31.2 µM (inactive)
same,GI50,MCF7,10.7 µM (inactive)
same,GI50,SF-295,23.8 µM (inactive)
same,GI50,CAKI-1,44.4 µM (inactive)
same,GI50,SK-MEL-2,22.5 µM (inactive)
same,GI50,PC-3,16.3 µM (inactive)
same,GI50,SF-268,4.66 µM (inactive)
same,GI50,A549,7.76 µM (inactive)
same,GI50,SK-MEL-5,16.1 µM (inactive)
same,GI50,K562,27 µM (inactive)
same,GI50,HL-60,23.4 µM (inactive)
same,GI50,DU-145,10.2 µM (inactive)
same,GI50,NCI/ADR-RES,15.6 µM (inactive)
same,GI50,OVCAR-5,21.7 µM (inactive)
same,GI50,SW-620,37.7 µM (inactive)
same,GI50,UACC-62,19.6 µM (inactive)
same,GI50,IGROV-1,14.5 µM (inactive)
same,GI50,HCT-15,21.6 µM
same,GI50,CCRF-CEM,4.59 µM (inactive)
same,GI50,HT-29,20.4 µM (inactive)
same,GI50,MDA-MB-231,46.3 µM (inactive)
same,GI50,UACC-257,17.7 µM (inactive)
same,GI50,COLO 205,> 10 µM (inactive)
same,GI50,RXF 393,12.7 µM (inactive)
same,GI50,SK-MEL-28,37.8 µM (inactive)
same,GI50,BT-549,19.5 µM (inactive)
same,GI50,NCI-H460,11.4 µM (inactive)
same,GI50,NCI-H522,3.98 µM (inactive)
same,GI50,MOLT-4,6.68 µM (inactive)
same,GI50,NCI-H23,3.89 µM (inactive)
same,GI50,KM12,29.9 µM (inactive)
same,GI50,EKVX,15.5 µM (inactive)
